Reference: PubChem BioAssay AID1117324 (Cheminformatics & Chemogenomics Research Group (CCRG), …, 2015)
Calls of active or inactive are those of the source. The rule behind the calls is not given here. Where a SMILES comes first, the peptide text is derived from it. Bridges are numbered along the chain shown (N, C = ends). [ ]: non-standard residue; d: D form. hArg = N=C(N)NCCCC[C@H](N)C(=O)O; Mpa = O=C(O)CCS

Each molecule was assayed on VEGF-stimulated ADSC/ECFC co-culture, nuclear area imaging (assay: nuclear area loss in endothelial-stromal co-culture, dose response, cell-based, VEGF stimulation, IC50 (AID 1117324)).
For `COc1cc2nc(N3CCN(C(=O)C4COc5ccccc5O4)CC3)nc(N)c2cc1OC` (stereo not given), the IC50 was > 10 µM (inactive). `NC1=NCC2c3ccccc3Cc3ccccc3N12` (stereo not given) was tested, and the IC50 was > 10 µM (inactive). In the case of `CCOC(=O)[C@H](CCc1ccccc1)N[C@@H](C)C(=O)N1Cc2cc(OC)c(OC)cc2C[C@H]1C(=O)O`, the IC50 is reported as > 10 µM (inactive). In the case of `Cc1cc(OCCOCC[N+](C)(C)Cc2ccccc2)ccc1C(C)(C)CC(C)(C)C`, the IC50 is reported as 8.7 µM (inactive). In the case of `Clc1ccccc1C(c1ccccc1)(c1ccccc1)n1ccnc1`, the IC50 is reported as > 10 µM (inactive). `O=C(NC1CCN(CCc2c[nH]c3ccccc23)CC1)c1ccccc1` was tested, and the IC50 was > 10 µM (inactive). `COc1cc2c(c(OC)c1OC)-c1ccc(OC)c(=O)cc1[C@@H](NC(C)=O)CC2` was tested, and the IC50 was > 10 µM (inactive). `O=C(NC(=O)c1c(F)cccc1F)Nc1ccc(Cl)c(Oc2ncc(C(F)(F)F)cc2Cl)c1` was tested, and the IC50 was > 10 µM (inactive). `CC(=O)[O][Hg][c]1ccccc1` showed an IC50 of 0.883 µM. For `CC=CC1C(C(=O)OCc2c(F)c(F)c(COC)c(F)c2F)C1(C)C` (stereo not given), the IC50 was > 10 µM (inactive). For `O=[N+]([O-])c1cccc(S(=O)(=O)NCCNS(=O)(=O)c2cccc([N+](=O)[O-])c2)c1`, the IC50 was > 10 µM (inactive). In the case of `Oc1c(Cl)cc(Cl)c2cccnc12`, the IC50 is reported as > 10 µM (inactive). In the case of `CCCCCCCCCCCCCCCCCCCCCC(=O)Nc1ccn([C@@H]2O[C@H](CO)[C@@H](O)[C@H]2O)c(=O)n1`, the IC50 is reported as > 10 µM (inactive). For `O=C1NCCN1CCN1CCC(c2cn(-c3ccc(F)cc3)c3ccc(Cl)cc23)CC1`, the IC50 was > 10 µM (inactive). With `CCCCCCCCCCCCCCNCCO` the IC50 was 9.19 µM (inactive). In the case of `CCCCCCCC/C=C\CCCCCCCCN`, the IC50 is reported as 9.13 µM (inactive). For `Cc1c(N)cccc1C(F)(F)F`, the IC50 was > 10 µM (inactive). For `Cc1cc(N)c2ccccc2[n+]1CCCCCCCCCC[n+]1c(C)cc(N)c2ccccc21`, the IC50 was > 10 µM (inactive). With `C#C[C@]1(OC(C)=O)CC[C@H]2[C@@H]3CCC4=C/C(=N/O)CC[C@@H]4[C@H]3CC[C@@]21CC` the IC50 was > 10 µM (inactive). In the case of `CC(C)(C)CC(C)(C)c1ccc(O)cc1`, the IC50 is reported as 9.11 µM (inactive). `CCc1oc2ccccc2c1C(=O)c1cc(Br)c(O)c(Br)c1` was tested, and the IC50 was > 10 µM (inactive). `C[C@H]1O[C@@H](O[C@H]2[C@@H](O)C[C@H](O[C@H]3[C@@H](O)C[C@H](O[C@H]4CC[C@@]5(C)[C@H](CC[C@@H]6[C@@H]5CC[C@]5(C)[C@@H](C7=CC(=O)OC7)CC[C@]65O)C4)O[C@@H]3C)O[C@@H]2C)C[C@H](O)[C@@H]1O` showed an IC50 of 0.103 µM. `CSc1ccc2c(c1)N(CCC1CCCCN1C)c1ccccc1S2` (stereo not given) was tested, and the IC50 was 9.24 µM (inactive). `NC(=O)[C@@H]1CSSCCC(=O)N[C@@H](CCCCN=C(N)N)C(=O)NCC(=O)N[C@@H](CC(=O)O)C(=O)N[C@@H](Cc2c[nH]c3ccccc23)C(=O)N2CCC[C@H]2C(=O)N1` ([Mpa][hArg]GDWPC-NH2; disulfide 1-7) was tested, and the IC50 was > 10 µM (inactive). In the case of `Oc1ccc2[nH]cc(CCCCN3CC=C(c4ccccc4)CC3)c2c1`, the IC50 is reported as > 10 µM (inactive). With `Cn1ccc2cc3c(cc21)CCN3C(=O)Nc1cccnc1` the IC50 was > 10 µM (inactive). `C=CCCCCCCCCC(=O)OC` was tested, and the IC50 was > 10 µM (inactive). In the case of `Cc1cccc(C)c1NC(=O)CN1CCN(CCCC(c2ccc(F)cc2)c2ccc(F)cc2)CC1`, the IC50 is reported as 9.37 µM (inactive). In the case of `CCCn1cnc2c1c(=O)n(CCCCC(C)=O)c(=O)n2C`, the IC50 is reported as > 10 µM (inactive). With `O=C(Nc1ccc([N+](=O)[O-])cc1)Nc1ccc([N+](=O)[O-])cc1` the IC50 was > 10 µM (inactive). `Cc1cc(O)c2c(O)c3c(O)cccc3cc2c1` was tested, and the IC50 was > 10 µM (inactive). `CC(C)=CCCC(C)=CCCC(C)=CCCC=C(C)CCC=C(C)CCC=C(C)C` was tested, and the IC50 was > 10 µM (inactive). For `Nc1c2ccccc2nc2ccccc12`, the IC50 was > 10 µM (inactive). With `CC[C@]1(O)CC[C@H]2[C@@H]3CCC4=CCCC[C@@H]4[C@H]3CC[C@@]21C` the IC50 was > 10 µM (inactive). In the case of `Cc1c(C(=O)NN2CCCCC2)nn(-c2ccc(Cl)cc2Cl)c1-c1ccc(Cl)cc1`, the IC50 is reported as > 10 µM (inactive). For `CCCCCCCCCCOCC(O)CN` (stereo not given), the IC50 was > 10 µM (inactive). For `Cc1ccc(O)cc1`, the IC50 was > 10 µM (inactive). In the case of `Cc1ccccc1C(=O)Nc1ccc(C(=O)N2CCCC(N(C)C)c3ccccc32)cc1` (stereo not given), the IC50 is reported as > 10 µM (inactive). In the case of `COc1ccc(-c2ccc3cc(C(=O)O)ccc3c2)cc1C12CC3CC(CC(C3)C1)C2`, the IC50 is reported as > 10 µM (inactive). `O=[N+]([O-])C(Br)(CO)CO` was tested, and the IC50 was > 10 µM (inactive). For `O=C(NOCC1CC1)c1ccc(F)c(F)c1Nc1ccc(I)cc1Cl`, the IC50 was > 10 µM (inactive). `CCCCc1ccc2nc(NC(=O)OC)[nH]c2c1` was tested, and the IC50 was > 10 µM (inactive). With `NC(=NCCCCCCN=C(N)/N=C(\N)Nc1ccc(Cl)cc1)/N=C(\N)Nc1ccc(Cl)cc1` the IC50 was > 10 µM (inactive). In the case of `COc1cc(-c2ccc(=O)[nH]n2)ccc1OC(F)F`, the IC50 is reported as > 10 µM (inactive). `CC(C)C[C@H](NC(=O)[C@H](CCc1ccccc1)NC(=O)CN1CCOCC1)C(=O)N[C@@H](Cc1ccccc1)C(=O)N[C@@H](CC(C)C)C(=O)[C@@]1(C)CO1` was tested, and the IC50 was 0.285 µM. For `COc1c(C)c2c(c(O)c1C/C=C(\C)CCC(=O)OCCN1CCOCC1)C(=O)OC2`, the IC50 was > 10 µM (inactive). `Nc1nc(=S)c2[nH]cnc2[nH]1` was tested, and the IC50 was > 10 µM (inactive). `COc1cc(NCc2ccc3nc(N)nc(N)c3c2C)cc(OC)c1OC` was tested, and the IC50 was > 10 µM (inactive). For `CN1CCN(CCCN2c3ccccc3Sc3ccc(S(=O)(=O)N(C)C)cc32)CC1`, the IC50 was > 10 µM (inactive). For `CSc1ccc(/C=C2/C(C)=C(CC(=O)O)c3cc(F)ccc32)cc1`, the IC50 was > 10 µM (inactive). In the case of `COc1ccccc1N1CCN(CC(O)COc2cc(OC)c(OC)c(OC)c2)CC1` (stereo not given), the IC50 is reported as > 10 µM (inactive). In the case of `Cc1ccc2c(Br)cc(Br)c(O)c2n1`, the IC50 is reported as > 10 µM (inactive). With `CCC1Nc2cc(Cl)c(S(N)(=O)=O)cc2S(=O)(=O)N1` (stereo not given) the IC50 was > 10 µM (inactive). In the case of `CCN(CC)CCOc1ccc(C(O)(Cc2ccc(Cl)cc2)c2ccc(C)cc2)cc1` (stereo not given), the IC50 is reported as 6.98 µM (inactive). For `S=c1nc[nH]c2nc[nH]c12`, the IC50 was > 10 µM (inactive). `CCN(CC)CCNC(=O)c1c(C)[nH]c(/C=C2\C(=O)Nc3ccc(F)cc32)c1C` was tested, and the IC50 was > 10 µM (inactive). In the case of `CC[C@@]1(O)C(=O)OCc2c1cc1n(c2=O)Cc2c-1nc1ccccc1c2/C=N/OC(C)(C)C`, the IC50 is reported as 0.799 µM. In the case of `C[C@@H]1C[C@@H]([C@H](O)CC2CC(=O)NC(=O)C2)C(=O)[C@@H](C)C1`, the IC50 is reported as > 10 µM (inactive). `Cc1nc2ccccc2n1Cc1ccc(Cl)cc1` was tested, and the IC50 was > 10 µM (inactive). `COC(=O)c1ccccc1C(=O)OC` was tested, and the IC50 was > 10 µM (inactive). With `CC(C)CCCC(C)NCCC(C)C` (stereo not given) the IC50 was > 10 µM (inactive). For `CSc1ccc2c(c1)C(N1CCN(C)CC1)Cc1ccccc1S2` (stereo not given), the IC50 was > 10 µM (inactive). With `O=[N+]([O-])c1ccc(Oc2ccc(N=C=S)cc2)cc1` the IC50 was > 10 µM (inactive). In the case of `Clc1ccc(C(Cn2ccnc2)OCc2ccsc2Cl)c(Cl)c1` (stereo not given), the IC50 is reported as 9.47 µM (inactive). For `CCCCCCCCOC(=O)c1ccccc1C(=O)OCCCCCCCC`, the IC50 was > 10 µM (inactive).
